Experimental findings from patent publication US20250352675A1, “CA-IX TARGETING FLUORESCENT PROBES” (BRACCO IMAGING S.P.A., priority 2022, published 2025) are described below.

Molecules are shown by their SMILES.

In one data set the test system is HT-29 cells. Kind of data set: Time-dependent cell uptake / internalization in HT-29 cells by flow cytometry. It is filed as cell-based, human. The conditions noted are these: 1 μM; for Slope of cell-associated fluorescence increase / total cell-associated fluorescence over time: 37° C.; for Slope of cell-associated fluorescence increase: 1-6 hours; for total cell-associated fluorescence over time: 1 to 6 hours; for % internalization (mean ± std. dev.): after 2 hours at 37° C. The method, then:
The HT-29 cells were used as in vitro model to assess the cell uptake of the CA-IX targeting compounds of the invention, more specifically whether cellular internalization of compounds occurred after targeting to cell-surface-expressed CA-IX. Cellular uptake was evaluated by flow cytometry. […] Treatment with unconjugated dyes were used to estimate non-specific CA-IX-independent cellular uptake. Cell incubation on ice was used to discriminate the cell-associated fluorescence deriving from internalized and cell-surface associated compounds (37° C.), from the one deriving from solely cell surface-bound compounds (on ice). Treatment of HT-29 cells, grown in 24-well plates, was performed by rinsing cells in DPBS and then by incubation with treatment solutions, for the indicated times and temperatures, in the dark. At the end of treatment, cells were rinsed 3 times with cold DPBS, and detached from the plate with StemPro® Accutase® Cell Dissociation Reagent, collected in 1.5 mL tubes after dilution in DPBS and centrifuged (5 minutes, 350 RCF, 4° C.). The supernatant was then discarded, and the cell pellet was resuspended in 300 μL of cold FACS buffer, or in a suitable volume in order to obtain no more than 1,000 recorded events per μL during FACS analysis. Samples were analyzed with the flow cytometer Accuri™ C6 (BD Biosciences) using the 640 nm excitation laser and the emission 780/60 nm filter. At least 15000 valid events were collected for each sample. At the end of analysis, each sample was plotted in histograms, being X the fluorescence intensity (FL4-A) in log scale and Y the counts. Usually, a gaussian distribution of the cell population was observed. The data retrieved were the mean fluorescence of each population, considered the fluorescence intensity value of the corresponding sample. Independent replicates were performed for each experimental condition. Normalized cell-associated fluorescence was calculated with the following formula: […]
To evaluate the time dependent uptake, the experiments were conducted from 1 to 6 hours of cell treatment with a compound concentration of 1 μM, both on ice (internalization blocked) and at 37° C. (internalization-permissive temperature) in order to differentiate cell-associated fluorescence deriving from internalized compounds from that due to cell surface-associated one. The cell surface-associated fluorescence remained roughly constant over time while the binding of the corresponding unconjugated dyes was undetectable. […] The internalization potential was calculated as percentage of internalized compounds after 2 hours of cell treatment (arbitrarily chosen) at 37° C.

A further data set concerns HT-29 tumor. The experiment in a line: Ex vivo tumor-to-background ratio in excised HT-29 tumors. Also noted: species or system mice. The conditions noted are these: 1 nmol/mouse, samples collected 24 hours after administration; tumor vs hind limb muscle. The method, then:
The ex vivo biodistribution of the representative compounds 1, 2 and 3 and of the reference compound HF-1 (at 1 nmol/mouse) was evaluated in HT-29 excised tumors and tissues at the end of the in vivo OI sessions 24 hours post intravenous administration. At the end of the in vivo experiment, animals were euthanized by overdose of gaseous anesthesia followed by cervical dislocation. Tumor tissue, muscle, and other organs of interest were removed for ex vivo fluorescent signal measurements. The fluorescence signal intensity was measured by the IVIS Spectrum system. Regions of interest (ROIs) were drawn around each organ and tumor using the Living Image Software (PerkinElmer) and evaluating signal intensity in the tissues (expressed as Average Radiant Efficiency). The ratio between the fluorescence signal in the organs and tumor was then calculated to assess the contrast to hind limb muscle (representing the background).

The nature of data set [1]: Optical characterization (excitation/emission maxima, molar extinction coefficient). It is filed as physicochemical. The method, then: A dual-beam UV-VIS spectrophotometer (Lambda 40, Perkin Elmer) was used to determine the absorbance (Abs) of the compounds of the invention. Emission/excitation (Em/Ex) spectra were carried out on a spectrofluorometer (FluoroLog-3 1IHR-320, Horiba Jobin Yvon) equipped with an F-3018 integrating sphere accessory. The measurements were performed using an excitation wavelength at maximum absorbance of different dyes, and the sample was excited with a 450W Xenon Light Source. Detection was performed by photomultiplier tubes (PMT-NIR) cooled detector or by TBX-04 detector. Dye solutions were carefully prepared to have an absorbance lower than 0.1 (optical densities) to minimize re-absorption phenomena.
The compounds of the invention were characterized in terms of their optical properties in vitro in aqueous medium (i.e., water/PBS pH 7.4) and in a clinical chemistry control serum (Seronorm, Sero S A), mimicking the chemical composition and optical properties of human serum. All solutions were freshly prepared. In particular, the compounds of the invention are characterized by absorption maxima comprised in the range from about 750 nm to 780 nm.
The excitation and emission maxima in PBS and Seronorm and the molar extinction coefficient (E) in water of representative compounds of formula (I) are shown in Table I in comparison with the known CA-IX targeting fluorescent probe named Hypoxyfluor-1 (HF-1, for instance disclosed in Bioconjugate Chem 2018, 29, 3320-3331). […] Moreover, the extinction coefficients were higher than […] for all compounds.

In a further data set the test system is HT-29 colorectal tumor. The experiment in a line: In vivo optical imaging of HT-29 tumor bearing mice (tumor-to-background ratio). The conditions noted are these: 1 nmol/mouse intravenous, 24 hours after administration; tumor vs hind limb muscle. The protocol: HT-29 cells were collected and washed once with serum-free medium. Five million HT-29 cells were suspended in 0.1 mL serum-free medium and injected subcutaneously in the right flank of 5 weeks old mice. Tumor development was followed by caliper measurement twice a week, from 7 days after inoculation. Tumor volume was calculated according to the formula: (L*W2)/2, where L and W are the maximum length and width of the tumor.
Optical Imaging experiments on HT-29 tumor bearing animals were performed after administration of HF-1, as reference compound, and compounds 1, 2 and 3, all at a dose of 1 nmol/mouse in an administration volume of 0.1 mL (corresponding to about 5 mL/kg, considering a 20 g-mouse) at an injection rate of about 1 mL/min, by the IVIS Spectrum system when the tumor reached at least 200 mm^3 volume.
For each group, in vivo OI experiments were performed at 0.5, 1, 2, 3, 4, 6 and 24 hours after intravenous administration of the fluorescent compounds. During imaging experiments animals were maintained under gaseous anesthesia. Regions of interest (ROIs) were drawn on the tumor and on a reference background healthy region (hind limb muscle) of the mouse for each fluorescence image at every time point to evaluate signal intensity in the tissues (expressed as Average Radiant Efficiency). The ratio between the fluorescence signal in the tumor and in the background healthy tissue (tumor-to-background ratio, TBR) was then calculated to assess the contrast.
All the compounds of the invention and HF-1 were tested at a dose of 1 nmol/mouse.

For the compound `CC1(C)C(/C=C/C=C/C=C/C=C2/N(CCCCS(=O)(=O)O)c3ccc(C(=O)NC[C@H](O)[C@@H](O)[C@H](O)[C@H](O)CO)cc3C2(C)C)=[N+](CCCCS(=O)(=O)[O-])c2ccc(C(=O)NCCCCCCCC(=O)Nc3nnc(S(N)(=O)=O)s3)cc21` [Compound 1], in the data set with HT-29 cells, the “Slope of cell-associated fluorescence increase” value is listed as 1.0, the “total cell-associated fluorescence over time” value was “increased over time” and the “% internalization (mean ± std. dev.)” value was determined as 22.8 ± 8.2%. For the same compound, the “ex vivo TBR ± SD, HT-29 tumor” value in the data set with HT-29 tumor was found to be 16.4 ± 4.4. Also, in data set [1] (PBS pH 7.4), the “Max Em” value was determined as 783 nm and the “Max Ex” value is 752 nm. In data set [1] (Seronorm), the “Max Em” value came out at 791 nm and the “Max Ex” value amounted to 768 nm. Also, the “in vivo TBR (mean ± SD)” value with HT-29 colorectal tumor came to 5.9 ± 1.2.
Regarding `CC1(C)C(/C=C/C=C/C=C/C=C2/N(CCCCS(=O)(=O)O)c3ccc(S(=O)(=O)O)cc3C2(C)C)=[N+](CCCCS(=O)(=O)[O-])c2ccc(C(=O)NCCCCCCCC(=O)Nc3nnc(S(N)(=O)=O)s3)cc21` [Compound 2], in the data set on HT-29 cells, the “Slope of cell-associated fluorescence increase” value is 1.9, the “total cell-associated fluorescence over time” value was “increased over time” and the “% internalization (mean ± std. dev.)” value came to 40.8 ± 9.9%. Moreover, the “ex vivo TBR ± SD, HT-29 tumor” value with HT-29 tumor is 15.2 ± 5.9. For the same compound, in data set [1] (PBS pH 7.4), the “Max Em” value turned out to be 784 nm and the “Max Ex” value is given as 754 nm. Besides, in data set [1] (Seronorm), the “Max Em” value was found to be 788 nm and the “Max Ex” value came out at 768 nm. For the same compound, in the data set on HT-29 colorectal tumor, the “in vivo TBR (mean ± SD)” value was 5.1 ± 1.9.
Take `CC1(C)C(/C=C/C2=C(Oc3ccc(S(=O)(=O)O)cc3)C(=C/C=C3/N(CCCCS(=O)(=O)O)c4ccc(S(=O)(=O)O)cc4C3(C)C)/CCC2)=[N+](CCCCS(=O)(=O)[O-])c2ccc(C(=O)NCCCCCCCC(=O)Nc3nnc(S(N)(=O)=O)s3)cc21` [Compound 3]: in the data set on HT-29 cells, the “Slope of cell-associated fluorescence increase” value worked out at 2.7, the “total cell-associated fluorescence over time” value is listed as “increased over time” and the “% internalization (mean ± std. dev.)” value came to 49.2 ± 3.9%. Moreover, the “ex vivo TBR ± SD, HT-29 tumor” value in the data set with HT-29 tumor was found to be 5.8 ± 2.2. Further, in data set [1] (PBS pH 7.4), the “Max Em” value came to 802 nm and the “Max Ex” value was found to be 776 nm. Moreover, in data set [1] (Seronorm), the “Max Em” value is 810 nm and the “Max Ex” value is 792 nm. Also, the “in vivo TBR (mean ± SD)” value with HT-29 colorectal tumor worked out at 2.2 ± 0.6.
